Source: patent US7135466B2 (Kirin Beer Kabushiki Kaisha, priority 1999, dated 2006)

Molecular target: T1, c-kit (Homo sapiens, UniProt P10721)
T1 construct: MO7e (human megakaryocytic leukemia cell line) which had been arrested for 20 hr; endogenous in cells; host or cells: MO7e human megakaryocytic leukemia cell line
Experiment: Inhibitory activity against c-kit autophosphorylation (MO7e cells, h-SCF)
Format: cell-based
Conditions: MO7e cells, 50 ng/ml h-SCF; read-out: c-kit IC50
Summary of the method: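 Ligand-induced c-kit tyrosine phosphorylation is measured in MO7e cells that were quiesced 20 hr and preincubated with compound for 1 hr prior to a 5 min pulse of 50 ng/ml human SCF. Phospho-c-kit is detected by anti-phosphotyrosine capture ELISA, A450.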

T1 sequence (P10721 26-976): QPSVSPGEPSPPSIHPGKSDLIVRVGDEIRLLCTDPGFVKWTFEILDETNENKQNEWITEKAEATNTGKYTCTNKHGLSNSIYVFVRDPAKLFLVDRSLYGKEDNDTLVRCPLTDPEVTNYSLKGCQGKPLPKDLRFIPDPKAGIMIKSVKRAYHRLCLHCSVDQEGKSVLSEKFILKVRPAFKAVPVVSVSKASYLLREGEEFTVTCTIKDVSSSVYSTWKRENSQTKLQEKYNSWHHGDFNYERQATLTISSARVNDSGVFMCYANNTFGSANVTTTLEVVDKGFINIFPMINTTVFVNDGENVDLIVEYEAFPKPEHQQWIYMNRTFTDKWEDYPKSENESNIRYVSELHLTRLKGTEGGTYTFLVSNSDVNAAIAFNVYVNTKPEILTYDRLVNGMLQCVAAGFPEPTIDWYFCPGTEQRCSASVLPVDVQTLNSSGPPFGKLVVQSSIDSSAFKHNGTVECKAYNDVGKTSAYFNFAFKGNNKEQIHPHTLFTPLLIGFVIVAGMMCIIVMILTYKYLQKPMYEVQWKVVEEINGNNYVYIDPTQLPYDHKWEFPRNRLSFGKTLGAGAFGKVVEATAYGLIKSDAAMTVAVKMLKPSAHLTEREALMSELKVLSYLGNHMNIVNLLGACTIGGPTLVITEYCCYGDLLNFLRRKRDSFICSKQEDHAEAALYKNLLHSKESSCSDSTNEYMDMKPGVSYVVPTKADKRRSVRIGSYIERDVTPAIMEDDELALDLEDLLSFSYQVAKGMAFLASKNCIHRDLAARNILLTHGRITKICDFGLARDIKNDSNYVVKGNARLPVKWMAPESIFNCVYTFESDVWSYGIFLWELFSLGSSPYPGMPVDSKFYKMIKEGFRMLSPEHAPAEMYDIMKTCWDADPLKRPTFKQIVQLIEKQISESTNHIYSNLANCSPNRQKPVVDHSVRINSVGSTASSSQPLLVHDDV

Structure (SMILES) | IC50 [nM]
COc1cc2nccc(Oc3ccc(NC(=O)NNc4ccccc4)c(F)c3)c2cc1OC [Example 612, N-{4-[(6,7-Dimethoxy-4-quinolyl)oxy]-2-fluorophenyl}-N′-(phenylamino)urea] | 173
COc1ccc(NCCOc2ccc(Oc3ccnc4cc(OC)c(OC)cc34)cc2)cc1 [Example 781, N-(2-{4-[(6,7-Dimethoxy-4-quinolyl)oxy]phenoxy}ethyl)-N-(4-methoxyphenyl)amine] | 135
COc1cc2nccc(Oc3ccc(OCC(=O)Nc4cccc(Cl)c4)cc3)c2cc1OC [Example 788, N1-(3-Chlorophenyl)-2-{4-[(6,7-dimethoxy-4-quinolyl)oxy]phenoxy}acetamide] | 122

Same assay, conditions: MO7e cells, h-SCF stimulation; read-out: c-kit IC50

Structure (SMILES) | IC50 [nM]
COc1cccc(C(=O)NC(=S)Nc2ccc(Oc3ccnc4cc(OC)c(OC)cc34)c(F)c2)c1 [Example 944, N-{4-[(6,7-Dimethoxy-4-quinolyl)oxy]3-fluorophenyl}-N′-(3-methoxybenzoyl)thiourea] | 140
COc1cc2nccc(Oc3ccc(NC(=S)NC(=O)c4cc(C)oc4C)cc3F)c2cc1OC [Example 1039, N-{4-[(6,7-Dimethoxy-4-quinolyl)oxy]-3-fluorophenyl}-N′-[(2,5-dimethyl-3-furyl)carbonyl]thiourea] | 556
COc1cc2nccc(Oc3ccc(NCCOc4ccccc4)cc3)c2cc1OC [Example 869, N-{4-[(6,7-Dimethoxy-4-quinolyl)oxy]phenyl}-N-(2-phenoxyethyl)amine] | 80
COc1cc2nccc(Oc3ccc(NC(=S)NC(=O)c4cccc(C(F)(F)F)c4)cc3F)c2cc1OC [Example 945, N-{4-[(6,7-Dimethoxy-4-quinolyl)oxy]-3-fluorophenyl}-N′-[3-(trifluoromethyl)benzoyl]thiourea] | 131
COc1cc2nccc(Oc3ccc(NCCOc4c(C)cccc4C)cc3)c2cc1OC [Example 855, N-{4-[(6,7-Dimethoxy-4-quinolyl)oxy]phenyl}-N-[2-(2,6-dimethylphenoxy)ethyl]amine] | 399
COc1cc2nccc(Oc3ccc(SCCOc4cccc(C)c4)cc3)c2cc1OC [Example 823, 6,7-Dimethoxy-4-(4-{[2-(3-methylphenoxy)ethyl]sulfanyl}phenoxy)quinoline] | 236
COc1cc2ncnc(Oc3ccc(NC(=S)NC(=O)c4ccc(F)cc4)cc3)c2cc1OC [Example 986, N-{4-[(6,7-Dimethoxy-4-quinazolinyl)oxy]phenyl}-N′-(4-fluorobenzoyl)thiourea] | 264
COc1cc2nccc(Oc3ccc(NC(=S)NC(=O)c4ccc(F)cc4F)c(F)c3)c2cc1OC [Example 1121, N-(2,4-Difluorobenzoyl)-N′-{4-[(6,7-dimethoxy-4-quinolyl)oxy]-2-fluorophenyl}thiourea] | < 30
COc1cc2nccc(Oc3ccc(NC(=S)NC(=O)c4ccc(Br)cc4)cc3Cl)c2cc1OC [Example 980, N-(4-Bromobenzoyl)-N′-{3-chloro-4-[(6,7-dimethoxy-4-quinolyl)oxy]phenyl}thiourea] | 811
COc1cc2nccc(Oc3ccc(NC(=S)NC(=O)c4cccc(C(F)(F)F)c4)cc3)c2cc1OC [Example 934, N-{4-[(6,7-Dimethoxy-4-quinolyl)oxy]phenyl}-N′-[3-(trifluoromethyl)benzoyl]thiourea] | 143
COc1cc2nccc(Oc3ccc(NC(=S)NC(=O)CCCCl)c(F)c3)c2cc1OC [Example 1066, N-(4-Chlorobutanoyl)-N′-{4-[(6,7-dimethoxy-4-quinolyl)oxy]-2-fluorophenyl}thiourea] | 279
COc1cc2nccc(Oc3ccc(NC(=S)NC(=O)CCSC)cc3F)c2cc1OC [Example 1069, N-{4-[(6,7-Dimethoxy-4-quinolyl)oxy]-3-fluorophenyl}-N′-[3-(methylsulfanyl)propanoyl]thiourea] | 189
COc1cc2ncnc(Oc3ccc(SCCCOc4ccccc4F)cc3)c2cc1OC [Example 845, 4-(4-{[3-(2-Fluorophenoxy)propyl]sulfanyl}phenoxy)-6,7-dimethoxyquinazoline] | 453
COc1cc2nccc(Oc3ccc(NCCOc4c(Cl)cccc4Cl)cc3)c2cc1OC [Example 854, N-[2-(2,6-Dichlorophenoxy)ethyl]-N-{4-[(6,7-dimethoxy-4-quinolyl)oxy]phenyl}amine] | 313
COc1cc2ncnc(Oc3ccc(NC(=S)NC(=O)c4cccc(C(F)(F)F)c4)cc3)c2cc1OC [Example 957, N-{4-[(6,7-Dimethoxy-4-quinazolinyl)oxy]phenyl}-N′-[3-(trifluoromethyl)benzoyl]thiourea] | 136
COc1cc2nccc(Oc3ccc(NC(=S)NC(=O)c4ccc(F)cc4)cc3)c2cc1OC [Example 961, N-{4-[(6,7-Dimethoxy-4-quinolyl)oxy]phenyl}-N′-(4-fluorobenzoyl)thiourea] | 740
COc1cc2nccc(Oc3ccc(NC(=S)NC(=O)c4cccc(Cl)c4)c(F)c3)c2cc1OC [Example 938, N-(3-Chlorobenzoyl)-N′-{4-[(6,7-dimethoxy-4-quinolyl)oxy]-2-fluorophenyl}thiourea] | 532
COc1cc2nccc(Oc3ccc(NCCOc4ccccc4O)cc3)c2cc1OC [Example 872, 2-(2-{4-[(6,7-Dimethoxy-4-quinolyl)oxy]anilino}ethoxy)phenol] | 32
COc1cc2ncnc(Oc3ccc(NCCOc4ccccc4)cc3)c2cc1OC [Example 873, N-{4-[(6,7-Dimethoxy-4-quinazolinyl)oxy]phenyl}-N-(2-phenoxyethyl)amine] | 69

Same assay, conditions: Mo7e, figure in parentheses in −( ); at 1000 nM

Structure (SMILES) | inhibition at 1 µM [%]
COc1cc2nccc(Oc3ccc(NC(=S)NC(=O)c4cccc(Cl)c4)c(C)c3)c2cc1OC [Example 1100, N-(3-Chlorobenzoyl)-N′-{4-[(6,7-dimethoxy-4-quinolyl)oxy]-2-methylphenyl}thiourea] | 18
COc1cc2nccc(Oc3ccc(NC(=S)NC(=O)c4ccccc4C)c(F)c3)c2cc1OC [Example 904, N-{4-[(6,7-Dimethoxy-4-quinolyl)oxy]-2-fluorophenyl}-N′-(2-methylbenzoyl)thiourea] | 46
COc1cc2nccc(Oc3ccc(NC(=S)NC(=O)c4ccccc4F)c(C)c3)c2cc1OC [Example 1094, N-{4-[(6,7-Dimethoxy-4-quinolyl)oxy]-2-methylphenyl}-N′-(2-fluorobenzoyl)thiourea] | 18
COc1cc2ncnc(Oc3ccc(SCCCOc4cccc(C)c4)cc3)c2cc1OC [Example 846, 6,7-Dimethoxy-4-(4-{[3-(3-methylphenoxy)propyl]sulfanyl}phenoxy)quinazoline] | 33
COc1cc2nccc(Oc3ccc(NC(=S)NC(=O)c4ccc(Cl)cc4Cl)c(F)c3)c2cc1OC [Example 1011, N-(2,4-Dichlorobenzoyl)-N′-{4-[(6,7-dimethoxy-4-quinolyl)oxy]-2-fluorophenyl}thiourea] | 20
COc1cc2nccc(Oc3ccc(NC(=S)NC(=O)c4ccc(F)cc4F)cc3F)c2cc1OC [Example 1013, N-(2,4-Difluorobenzoyl)-N′-{4-[(6,7-dimethoxy-4-quinolyl)oxy]-3-fluorophenyl}thiourea] | 22
COc1cc2nccc(Oc3ccc(S(=O)(=O)CCOc4ccccc4C(C)C)cc3)c2cc1OC [Example 836, 4-[(6,7-Dimethoxy-4-quinolyl)oxy]phenyl [2-(2-isopropylphenoxy)ethyl]sulfone] | 39
COc1cc2nccc(Oc3ccc([S+]([O-])CCOc4ccc(Cl)cc4Cl)cc3)c2cc1OC (stereo not drawn) [Example 840, [2-(2,4-Dichlorophenoxy)ethyl]{4-[(6,7-dimethoxy-4-quinolyl)oxy]phenyl} sulfoxide] | 14
COc1ccc(C(=O)NC(=S)Nc2ccc(Oc3ncnc4cc(OC)c(OC)cc34)cc2)cc1 [Example 988, N-{4-[(6,7-Dimethoxy-4-quinazolinyl)oxy]phenyl}-N′-(4-methoxybenzoyl)thiourea] | 33
COc1cc2nccc(Oc3ccc(NC(=S)NC(=O)c4ccc([N+](=O)[O-])cc4)cc3Cl)c2cc1OC [Example 982, N-{3-Chloro-4-[(6,7-dimethoxy-4-quinolyl)oxy]phenyl}-N′-(4-nitrobenzoyl)thiourea] | 18
COc1cc2nccc(Oc3ccc(NC(=S)NC(=O)c4c(Cl)cccc4Cl)c(F)c3)c2cc1OC [Example 1012, N-(2,6-Dichlorobenzoyl)-N′-{4-[(6,7-dimethoxy-4-quinolyl)oxy]-2-fluorophenyl}thiourea] | 24
COc1cc2ncnc(Oc3ccc(SCCCCOc4cccc(C)c4)cc3)c2cc1OC [Example 847, 6,7-Dimethoxy-4-(4-{[4-(3-methylphenoxy)butyl]sulfanyl}phenoxy)quinazoline] | 9
COc1cc2nccc(Oc3ccc(NC(=S)NC(=O)c4ccccc4OC)c(F)c3)c2cc1OC [Example 909, N-{4-[(6,7-Dimethoxy-4-quinolyl)oxy]-2-fluorophenyl}-N′-(2-methoxybenzoyl)thiourea] | 32
COc1cc2nccc(Oc3ccc(NC(=S)NC(=O)c4ccccc4Cl)c(C)c3C)c2cc1OC [Example 1078, N-(2-Chlorobenzoyl)-N′-{4-[(6,7-dimethoxy-4-quinolyl)oxy]-2,3-dimethylphenyl}thiourea] | 32

Same assay, conditions: Mo7e, figure within parentheses in −( ) or >1000( ); at 1000 nM

Structure (SMILES) | inhibition at 1 µM [%]
COc1cc2ncnc(Oc3ccc(OCC(=O)N4CCCCC4)cc3)c2cc1OC [Example 806, 2-{4-[(6,7-Dimethoxy-4-quinazolinyl)oxy]phenoxy}-1-piperidino-1-ethanone] | 35
C#CCC(CC)OC(=O)Nc1ccc(Oc2ncnc3cc(OC)c(OC)cc23)cc1OC (stereo not drawn) [Example 502, 1-Ethyl-3-butynyl N-{4-[(6,7-dimethoxy-4-quinazolinyl)oxy]-2-methoxyphenyl}carbamate] | 23
COc1cc2ncnc(Oc3ccc(NC(=O)NCCN4CCCC4)cc3)c2cc1OC [Example 621, N-{4-[(6,7-Dimethoxy-4-quinazolinyl)oxy]phenyl}-N′-(2-tetrahydro-1H-1-pyrrolylethyl)urea] | 30
